From patent publication US11155668B2, “Contact-killing, QAC functionalized thermoplastic polyurethane for catheter applications” (THE UNIVERSITY OF AKRON, priority 2017, dated 2021)
Entries after “also recorded” stand apart in the source; their conditions may differ.

Key:
S. epidermidis = test: Contact-killing assay (adapted from ISO 22196) on allyl-TPU blade-coated samples modified with Qx-SH; type: cell-based, Staphylococcus epidermidis (ATCC 12228); conditions: n = 2, negative control polypropylene 0.93 (±0.03) × 10^5
Experimental: (§1) To functionalize the allyl-TPU blade-coated samples with Qx-SH reagents, thiol-ene reactions were performed using the same procedure described for rhodamine-SH. Briefly, blade-coated films of allyl-TPU (250 μm thick, 2.0 cm diameter, ca. 110 mg, 20 μmol allyl) were submerged in 2 mL of an Ar purged (30 min) aqueous solution containing Qx-SH (10.0 mM) and LAP (5.0 mM), and allowed to pre-soak for 30 min under Ar. UV-treated samples were irradiated for 30 min (λ=365 nm, I=1.2 mW·cm^−2) while phys. ads. samples were kept in the absence of UV light for 30 min to control for any antimicrobial activity that is contributed by non-covalently attached QAC. Following treatment, the dye/photoinitiator solutions were drawn up and discarded, and the samples were rinsed with 5 mL of DI water (3×) then submerged in 5 mL of DI water. The samples were further rinsed with 10% EtOH (3×) and soaked in 10% EtOH for 15 min (3×), rinsing with 10% EtOH in between each soak.
(§2) For antimicrobial testing, blade-coated samples and catheter tubing of allyl-TPU were sterilized by EtO sterilization using an Anprolene benchtop sterilizer (Anderson Products, Inc., Haw River, N.C.) following the manufacturer's protocol to deliver approximately 0.5 cc·L^−1 of EtO gas over a 12 h sterilization cycle at 35% humidity and room temperature, followed by a 48 h purge under vacuum. The bacterial strains used in this study included Staphylococcus epidermidis (ATCC 12228), Staphylococcus aureus (25923), Escherichia coli (ATCC 25922), Pseudomonas aeruginosa (ATCC 27853), Enterococcus faecalis (ATCC 29212), and methicillin-resistant Staphylococcus aureus (MRSA) (ATCC BAA-41).
(§3) The contact-killing assay was performed on physically adsorbed (phys. ads.), and UV-treated blade-coated samples modified with a series of Qx-SH reagents using a method adapted from ISO 22196. See, International Organization for Standardization. Measurement of antibacterial activity on plastics and other non porous surfaces (ISO 22196:2011), the disclosure of which is incorporated herein by reference in its entirety. Briefly, the samples were inoculated with same day cultures of select bacteria (e.g. E. coli, S. epidermidis) in dilute nutrient media (0.2% tryptic soy broth (TSB) in 1× phosphate buffered saline (PBS)) at approximately 150 colony-forming units (CFU)·mm^−2. Generally, 35 uL of 8.5×10^5 CFU/mL cultures were dispersed across the surface of the sample using sterile polypropylene cover films (area=198 mm^2). Inoculated samples were incubated in a humidified room air incubator (36° C., ca. 80% rel. humidity) for 20 h. Following incubation, surviving cells were recovered from the samples using vigorous agitation (i.e. vortexing for 20 s in PBS). Surviving cells were enumerated via 10-fold series dilution and plating 100 μL onto tryptic soy agar (TSA), incubating overnight and then plate counting CFU. The mean CFU recovered per sample (CFU/sample) were calculated by accounting for dilutions. Internal controls samples of polypropylene and chlorhexidine treated with polypropylene were included in the assay.

MRSA = test: as above; type: cell-based; conditions: n = 1, negative control polypropylene 1.51 × 10^5
Experimental: as §1, §2, §3

S. aureus = test: Live/dead fluorescence assay on blade-coated samples modified with Q8-SH; type: cell-based, Staphylococcus aureus (25923); conditions: within 5 min
Experimental: as §2
A live/dead assay was performed using overnight cultures of E. coli grown in TSB and S. aureus grown in Mueller-Hinton broth (MH). The cells were washed with PBS (3×), resuspended in PBS, and diluted to obtain an OD600=0.15 (measured using a Hach DR2800 Spectrophotometer, λ=600 nm). The bacterial suspensions (1.0 mL) were stained with 2.0 μL of a dye mixture containing equal portions of 3.34 mM SYTO 9 and 20 mM propidium iodide (L7012 LIVE/DEAD™ BACLIGHT™ Bacterial Viability Kit, ThermoFisher Scientific) and allowed to incubate at room temperature in the dark for 15 min. […] Live/dead microscopy was performed using an IX81 inverted microscope (Olympus, Center Valley, Pa.) and images were processed and quantified using ImageJ software.

E. coli = test: as above; type: cell-based, Escherichia coli (ATCC 25922); conditions: for E. coli killed: at 10 min
Experimental: as §2
A live/dead assay was performed using overnight cultures of E. coli grown in TSB and S. aureus grown in Mueller-Hinton broth (MH). The cells were washed with PBS (3×), resuspended in PBS, and diluted to obtain an OD600=0.15 (measured using a Hach DR2800 Spectrophotometer, λ=600 nm). The bacterial suspensions (1.0 mL) were stained with 2.0 μL of a dye mixture containing equal portions of 3.34 mM SYTO 9 and 20 mM propidium iodide (L7012 LIVE/DEAD™ BACLIGHT™ Bacterial Viability Kit, ThermoFisher Scientific) and allowed to incubate at room temperature in the dark for 15 min. Then, 10 μL of stained bacterial suspension was placed on a glass slide and covered with either untreated, phys. ads., or UV-treated samples modified with Q8-SH for 5 min (S. aureus) or 10 min (E. coli) before imaging. Live/dead microscopy was performed using an IX81 inverted microscope (Olympus, Center Valley, Pa.) and images were processed and quantified using ImageJ software.

[1] = UV-treated samples, within 10 min, OD600=0.15

For `CCCCCCCC[N+](C)(C)CCCCCCCCOC(=O)CCS.[Cl-]` [Q8-SH], the “Mean CFU/Sample Recovered, S.epidermidis” value (S. epidermidis; UV-treated samples) was 0.00 ± 0.00 CFU/Sample, the “Mean CFU/Sample Recovered, S.epidermidis” value (S. epidermidis; phys. ads. samples) was 0.00 ± 0.00 CFU/Sample and the “Mean CFU/Sample Recovered, MRSA” value (MRSA; UV-treated samples) was 0.00 CFU/Sample. For the same compound, the “Mean CFU/Sample Recovered, MRSA” value (MRSA; phys. ads. samples) was 0.00 CFU/Sample, the “portion of S. aureus killed” value (S. aureus; UV-treated samples) was “ca. 75%” and the “S. aureus inoculum killed (in words)” value (S. aureus; [1]) was “nearly all; also recorded: majority”. For the same compound, the “portion of S. aureus killed” value (S. aureus; phys. ads. samples) was “ca. 50%”, the E. coli killed (E. coli; UV-treated samples) was 90% and the “E. coli inoculum killed (in words)” value (E. coli; [1]) was “nearly all; also recorded: majority”. The E. coli killed (E. coli; phys. ads. samples) was 5%.
